Reference: US7022736B2, “Enzyme inhibitors” (Istituto Di Ricerche Di Biologia Molecolare P Angeletti SpA, priority 1998, dated 2006)

These molecules were tested against T1, HCV RdRp (NS5B RNA-dependent RNA polymerase) (Hepatitis C virus genotype 1b, UniProt P26663) (assay: Inhibition of hepatitis C virus RdRp (poly(A)/oligo(U), [3H]UTP incorporation)). Details: not given.
T1 construct: The HCV NS5B protein is the viral RdRp; made in house; host or cells: insect cells infected with recombinant baculovirus
Assay type: biochemical
Protocol: In initial tests, the compounds were tested to see if they were effective as inhibitors of the RNA-dependent RNA polymerase (RdRp) of hepatitis C virus (HCV). The HCV NS5B protein is the viral RdRp; compounds capable of interfering with the activity of this enzyme are thus expected to block viral replication.
Test for Inhibition of Hepatatis C Virus RdRp
WO96/37619 describes the production of recombinant HCV RdRp from insect cells infected with recombinant baculovirus encoding the enzyme. […] The reference describes a polymerisation assay using poly (A) as a template and oligo (U) as a primer. Incorporation of tritiated UTP is quantified by measuring acid-insoluble radioactivity. The present inventors have employed this assay to screen the various compounds described above as inhibitors of HCV RdRp and other virally encoded polymerases.
Incorporation of radioactive UMP was measured as follows. The standard reaction (100 μl) was carried out in a buffer containing 20 mM tris/HCl pH 7.5, 5 mM MgCl2, 1 mM DTT, 50 mM NaCl, 1 mM EDTA, 2 OU Rnasin (Promega), 0.05% Triton X-100, 1 μCi[^3H] UTP (40 Ci/mmol,NEN), 10 μM UTP and 10 μg/ml poly (A). Oligo (U)12 (1 μg/ml, Genset) was added as a primer. The final NSSB enzyme concentration was 20 nM. After 1 hour incubation at 22° C. the reaction was stopped by adding 100 μl of 20% TCA and applying samples to DE81 filters. The filters were washed thoroughly with 5% TCA containing 1M Na2HPO4/NaH2PO4, pH 7.0, rinsed with water and then ethanol, air dried, and the filter-bound radioactivity was measured in the scintillation counter. By carrying out the reaction in the presence of various concentrations of each of the compounds set out above it was possible to determine IC50 values for each compound with the formula: % residual activity=100/(1+[I]/IC50)^s where [I] is the inhibitor concentration and “s” is the slope of the inhibition curve. Test for Inhibition of Hepatitis B Virus Polymerase

T1 sequence (P26663 2420-3010): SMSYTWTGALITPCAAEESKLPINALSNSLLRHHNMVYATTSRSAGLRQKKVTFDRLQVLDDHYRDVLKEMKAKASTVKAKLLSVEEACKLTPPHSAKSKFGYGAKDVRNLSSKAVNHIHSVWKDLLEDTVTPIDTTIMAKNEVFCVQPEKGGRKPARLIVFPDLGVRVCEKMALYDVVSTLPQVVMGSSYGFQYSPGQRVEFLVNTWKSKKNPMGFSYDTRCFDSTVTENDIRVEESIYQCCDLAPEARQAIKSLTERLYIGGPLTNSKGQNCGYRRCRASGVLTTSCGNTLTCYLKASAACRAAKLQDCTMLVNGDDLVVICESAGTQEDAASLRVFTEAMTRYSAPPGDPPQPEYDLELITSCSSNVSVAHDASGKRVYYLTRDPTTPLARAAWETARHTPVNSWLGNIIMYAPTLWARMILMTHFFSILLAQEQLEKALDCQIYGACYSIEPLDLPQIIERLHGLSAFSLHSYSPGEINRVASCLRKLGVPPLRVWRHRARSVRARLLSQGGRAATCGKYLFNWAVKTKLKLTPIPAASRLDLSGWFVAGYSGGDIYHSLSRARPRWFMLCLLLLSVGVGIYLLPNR

Compound | IC50 [µM]
O=C(O)C(=O)CC(=O)c1ccco1 [Example 216] | 50

Same assay, conditions: Tables I-VIII; 20 nM NS5B, 1 hour at 22° C.; read-out: IC 50 (μM), HCV-polymerase

Compound | IC50 [µM]
O=C(O)C(O)=CC(=O)c1cccc(NS(=O)(=O)c2cccc(Cl)c2)c1 [Example 131] | 0.78
O=C(O)C(O)=CC(=O)c1cccc(OCc2cccc3ccccc23)c1 [Example 132] | 0.67
O=C(O)C(O)=CC(=O)c1cccc(OCc2ccc(Cl)c(Cl)c2)c1 [Example 133] | 3.2
O=C(O)C(O)=CC(=O)c1cccc(NS(=O)(=O)CCCCl)c1 [Example 134] | 23
O=C(O)C(O)=CC(=O)c1cccc(NS(=O)(=O)c2cc(Cl)c(Oc3ccc([N+](=O)[O-])cc3Cl)c(Cl)c2)c1 [Example 135] | 21
O=C(O)C(O)=CC(=O)c1cccc(NS(=O)(=O)c2ccc(Cl)c(Cl)c2)c1 [Example 136] | 0.2
Cc1ccc(S(=O)(=O)Nc2cccc(C(=O)C=C(O)C(=O)O)c2)cc1Cl [Example 137] | 0.9
O=C(O)C(O)=CC(=O)c1cccc(NS(=O)(=O)c2ccc(F)cc2Cl)c1 [Example 138] | 1.1
O=C(O)C(O)=CC(=O)c1cccc(OCc2c(Cl)cccc2Cl)c1 [Example 139] | 1.4
O=C(O)C(O)=CC(=O)c1cccc(NS(=O)(=O)c2c(Cl)cc(C(F)(F)F)cc2Cl)c1 [Example 140] | 1
O=C(O)C(O)=CC(=O)c1cccc(NS(=O)(=O)c2ccc(Cl)c([N+](=O)[O-])c2)c1 [Example 141] | 0.56
O=C(O)C(O)=CC(=O)c1cccc(NS(=O)(=O)c2cccc([N+](=O)[O-])c2)c1 [Example 142] | 0.4
O=C(O)C(O)=CC(=O)c1cccc(NS(=O)(=O)c2ccc(F)c(Cl)c2)c1 [Example 143] | 0.45
O=C(O)C(O)=CC(=O)c1cccc(S(=O)(=O)Nc2ccccc2)c1 [Example 144] | 14
O=C(O)C(O)=CC(=O)c1cccc(S(=O)(=O)Nc2ccc(Cl)cc2)c1 [Example 145] | 1.2
Cc1cc(C)c(S(=O)(=O)Nc2cccc(C(=O)C=C(O)C(=O)O)c2)c(C)c1 [Example 146] | 15
Cc1cc(S(=O)(=O)Nc2cccc(C(=O)C=C(O)C(=O)O)c2)c(C)cc1Cl [Example 147] | 1.3
O=C(O)C(O)=CC(=O)c1cccc(NS(=O)(=O)c2c(Cl)cc(Cl)cc2Cl)c1 [Example 148] | 0.26
Cc1cc(S(=O)(=O)Nc2cccc(C(=O)C=C(O)C(=O)O)c2)c(Cl)cc1Cl [Example 149] | 0.55
Cc1cc(Cl)cc(Cl)c1S(=O)(=O)Nc1cccc(C(=O)C=C(O)C(=O)O)c1 [Example 150] | 2.3
O=C(O)C(O)=CC(=O)c1cccc(NS(=O)(=O)c2ccc(Cl)cc2Cl)c1 [Example 151] | 0.5
O=C(O)C(O)=CC(=O)c1cc(Cc2ccccc2)ccc1F [Example 152] | 20
O=C(O)C(O)=CC(=O)c1cccc(Cn2nc3ccccc3n2)c1 [Example 153] | 19
O=C(O)C(O)=CC(=O)c1cccc(Cn2nnc3ccccc32)c1 [Example 154] | 30
N#Cc1ccccc1COc1cc(O)cc(C(=O)C=C(O)C(=O)O)c1 [Example 158] | 0.2
N#Cc1cccc(Cl)c1COc1cc(O)cc(C(=O)C=C(O)C(=O)O)c1 [Example 160] | 0.1
O=C(O)C(O)=CC(=O)c1ccc(O)cc1 [Example 162] | 5.5

Compound | IC50 [µM]
O=C(O)C(O)=CC(=O)c1ccc(F)cc1 [Example 163] | 26
CCc1ccc(C(=O)C=C(O)C(=O)O)cc1 [Example 164] | 47
Cc1ccc(C(=O)C=C(O)C(=O)O)c(C)c1 [Example 165] | 2
O=C(O)C(O)=CC(=O)c1ccc(Cl)cc1 [Example 166] | 20
Cc1ccc(C(=O)C=C(O)C(=O)O)c(OCCCC#N)c1 [Example 167] | 0.6
N#CCCCOc1cccc(OCCCC#N)c1C(=O)C=C(O)C(=O)O [Example 171] | 12
COc1cccc(OC)c1C(=O)C=C(O)C(=O)O [Example 172] | > 50
N#CCCCn1cccc1C(=O)C=C(O)C(=O)O [Example 173] | 21
N#CCCCCn1cccc1C(=O)C=C(O)C(=O)O [Example 174] | 13.4
O=C(O)C(O)=CC(=O)c1cccn1CC1CCCC1 [Example 175] | 25
O=C(O)C(O)=CC(=O)c1cccn1Cc1ccccc1 [Example 176] | 29
O=C(O)C(O)=CC(=O)c1cccn1-c1ccc(F)cc1 [Example 177] | 25
O=C(O)C(O)=CC(=O)c1cccn1CC1CCCCC1 [Example 178] | 17.9
O=C(O)C(O)=CC(=O)c1cccn1Cc1ccc(O)cc1 [Example 179] | 12.8
O=C(O)C(O)=CC(=O)c1cccn1Cc1ccc(F)cc1 [Example 180] | 93
O=C(O)C(O)=CC(=O)c1cccn1Cc1cccc(F)c1 [Example 181] | 30
O=C(O)C(O)=CC(=O)c1cccn1Cc1ccccc1F [Example 182] | 30
N#Cc1ccc(Cn2cccc2C(=O)C=C(O)C(=O)O)cc1 [Example 183] | 32
N#Cc1ccccc1Cn1cccc1C(=O)C=C(O)C(=O)O [Example 184] | 6.7
O=C(O)C(O)=CC(=O)c1cccn1Cc1ccccc1Cl [Example 186] | 24
O=C(O)C(O)=CC(=O)c1cccn1CCCc1ccc(F)cc1 [Example 187] | 36
O=C(O)C(O)=CC(=O)c1cccn1Cc1ccc2ccccc2c1 [Example 188] | 12.7
O=C(O)C(O)=CC(=O)c1cccn1CCCCOc1ccccc1 [Example 189] | 28
O=C(O)C(O)=CC(=O)c1cc(I)cn1Cc1ccc(F)cc1 [Example 190] | 18
Cc1ccsc1C(=O)C=C(O)C(=O)O [Example 191] | 10
Cc1cc(C)c(C(=O)C=C(O)C(=O)O)s1 [Example 192] | 8.2
O=C(O)C(O)=CC(=O)c1ccc(Cl)s1 [Example 193] | 12

Compound | IC50 [µM]
O=C(O)C(O)=CC(=O)c1sccc1Cl [Example 194] | 16
O=C(O)C(O)=CC(=O)c1ccc(N2CCCC2)s1 [Example 195] | 11.1
O=C(O)C(O)=CC(=O)c1cc(-c2cccnc2)cs1 [Example 197] | 11
O=C(O)C(O)=CC(=O)c1ccc(Br)s1 [Example 198] | 7.9
O=C(O)C(O)=CC(=O)c1sccc1Br [Example 199] | 17
O=C(O)C(O)=CC(=O)c1ccc(N2CCCCC2)s1 [Example 200] | 8.2
Cc1csc2sc(C(=O)C=C(O)C(=O)O)c(C)c12 [Example 201] | 20
C=CCN(CC=C)c1ccc(C(=O)C=C(O)C(=O)O)s1 [Example 203] | 19.8
O=C(O)C(O)=CC(=O)c1cc2c(s1)-c1ccccc1CC2 [Example 204] | 11
O=C(O)C(O)=CC(=O)c1sccc1Cc1cccc(F)c1 [Example 207] | 9.9
O=C(O)C(O)=CC(=O)c1sccc1Cc1ccc(F)cc1 [Example 208] | 11.6
O=C(O)C(O)=CC(=O)c1sccc1Sc1ccccc1 [Example 209] | 12.6
O=C(O)C(O)=CC(=O)c1ccc(Cc2cccc(Cl)c2)s1 [Example 211] | 82
O=C(O)C(O)=CC(=O)c1sccc1Cc1cccc(Cl)c1 [Example 212] | 7.5
O=C(O)C(O)=CC(=O)c1sccc1Sc1cccc(F)c1 [Example 213] | 5.9
O=C(O)C(O)=CC(=O)c1cc2c(s1)CCCC2c1ccccc1 (centres unmarked) [Example 214] | 17
O=C(O)C(O)=CC(=O)c1ccc(N2CCc3ccccc3C2)s1 [Example 215] | 15.3
Cc1ccc(C(=O)CC(=O)C(=O)O)o1 [Example 217] | 58
Cc1c[nH]c(C)c1C(=O)C=C(O)C(=O)O [Example 219] | 23.7
N#Cc1cccc(Cn2ccc(C(=O)C=C(O)C(=O)O)c2)c1 [Example 220] | 4.6
Cn1cc(C(=O)C=C(O)C(=O)O)cc1Cc1cccc(F)c1 [Example 221] | 20.6
O=C(O)C(O)=CC(=O)c1ccsc1 [Example 222] | 4
O=C(O)C(O)=CC(=O)c1cc(Cl)sc1Cl [Example 224] | 50
Cc1ccc(-c2sccc2C(=O)C=C(O)C(=O)O)cc1 [Example 226] | 17
O=C(O)C(O)=CC(=O)c1ccsc1Cc1cccs1 [Example 227] | 15
O=C(O)C(O)=CC(=O)c1ccsc1Cc1ccc(F)cc1 [Example 228] | 17.8

Same assay, conditions: Tables IXa-IXc; unit inferred; read-out: HCV (IC50)

Compound | IC50 [µM]
N#Cc1ccccc1COc1cc(O)cc(C(=O)C=C(O)C(=O)O)c1 [Example 158] | 0.2
N#Cc1cccc(Cl)c1COc1cc(O)cc(C(=O)C=C(O)C(=O)O)c1 [Example 160] | 0.1
O=C(O)C(O)=CC(=O)c1ccc(O)cc1 [Example 162] | 5.5
Cc1ccc(C(=O)C=C(O)C(=O)O)c(C)c1 [Example 165] | 2
O=C(O)C(O)=CC(=O)c1cccn1Cc1ccc(O)cc1 [Example 179] | 12.8
O=C(O)C(O)=CC(=O)c1cc(I)cn1Cc1ccc(F)cc1 [Example 190] | 18
Cc1cc(C)c(C(=O)C=C(O)C(=O)O)s1 [Example 192] | 8.2
O=C(O)C(O)=CC(=O)c1ccc(Br)s1 [Example 198] | 7.9
